{"source": "paper PMC9099118", "about": "(Clinical and Translational Science, 2022)", "origin": "cited, not measured here", "conditions": "Genuair multidose DPI, HVs; cited from earlier work", "data": [{"compound": "O=C(O[C@H]1C[N+]2(CCCOc3ccccc3)CCC1CC2)C(O)(c1cccs1)c1cccs1", "note": "[aclidinium bromide]", "values": [{"measurement": "mean emitted lung dose", "result": "approximately 35%"}]}]}
